Laboratory results as given in paper PMC7952052, “Flavonoids and Acid-Hydrolysis derivatives of Neo-Clerodane diterpenes from Teucrium flavum subsp. glaucum as inhibitors of the HIV-1 reverse transcriptase–associated RNase H function” (Journal of Enzyme Inhibition and Medicinal Chemistry, 2021).

Key:
[1] = target: T1, HIV-1 RT-associated RNase H function (Human immunodeficiency virus type 1 group M subtype B, UniProt P04585); experiment: HIV-1 DNA polymerase-independent RNase H activity determination (wt RT); type: biochemical; conditions: for remaining activity at 100 µM: in the presence of 100 µM of the compound, read-out: Percentage of residual enzyme activity (RNase H); for IC50: concentration required to reduce the enzyme activity by 50%, read-out: RnaseH IC50
T1 construct: The 1:1 ration between the p66/p51 subunits was also verified; His6; made in house; host or cells: E. coli strain M15
Experimental: (§1) HIV-1 RT group M subtype B. Heterodimeric RT was expressed essentially as previously described. Briefly, E. coli strain M15 containing the p6HRT-prot vector was grown to an optical density at 600 nm of 0.7 and induced with 1.7 mM isopropyl β-D-1-thiogalactopyranoside (IPTG) for 4 h. Protein purification was carried out with a BioLogic LP system (Biorad), using a combination of immobilised metal affinity and ion exchange chromatography. Cell pellets were resuspended in lysis buffer (50 mM sodium phosphate buffer pH 7.8, containing 0.5 mg/mL lysozyme), incubated on ice for 20 min, and after adding NaCl to a final concentration of 0.3 M, were sonicated and centrifuged at […] for 1 h. The supernatant was loaded onto a Ni^2+-NTA-Sepharose column pre-equilibrated with loading buffer (50 mM sodium phosphate buffer pH 7.8, containing 0.3 M NaCl, 10% glycerol, and 10 mM imidazole) and washed thoroughly with wash buffer (50 mM sodium phosphate buffer pH 6.0, containing 0.3 M NaCl, 10% glycerol, and 80 mM imidazole). RT was eluted with an imidazole gradient in wash buffer (0–0.5 M). Fractions were collected, protein purity was checked by SDS-PAGE and found to be higher than 90%. The 1:1 ration between the p66/p51 subunits was also verified. Enzyme-containing fractions were pooled and diluted 1:1 with 50 mM sodium phosphate buffer pH 7.0, containing 10% glycerol; and then loaded into a Hi-trap heparin HP GE (Healthcare Lifescience) pre-equilibrated with 10 column volumes of loading buffer (50 mM sodium phosphate buffer pH 7.0, containing 10% glycerol and 150 mM NaCl). The column was then washed with loading buffer and the RT was eluted with Elute Buffer 2 (50 mM sodium phosphate pH 7.0, 10% glycerol, 1 M NaCl). Fractions were collected, protein was dialysed and stored in buffer containing 50 mM Tris-HCl pH 7.0, 25 mM NaCl, 1 mM EDTA, and 50% glycerol. Catalytic activities and protein concentrations were determined. Enzyme-containing fractions were pooled and aliquots were stored at −80 °C.
(§2) HIV RT-associated RNase H activity was measured as described[36] using the RNase H inhibitor RDS1759[11] as a control. In 100 µL reaction volume containing 50 mM Tris-HCl buffer pH 7.8, 6 mM MgCl2, 1 mM dithiothreitol (DTT), 80 mM KCl, 0.25 µM hybrid RNA/DNA 5′-GAUCUGAGCCUGGGAGCU-Fluorescin-3′ (HPLC, dry, QC: Mass Check) (available from Metabion) 5′-Dabcyl-AGCTCCCAGGCTCAGATC-3′ (HPLC, dry, QC: Mass Check), increasing concentrations of inhibitor, whose dilution were made in water, and 20 ng of wt RT according to a linear range of dose-response curve. The reaction mixture was incubated for 1 h at 37 °C, stopped by addition of EDTA and products were measured with a multilabel counter plate reader Victor 3 (Perkin Elmer model 1420–051) equipped with filters for 490/528 nm (excitation/emission wavelength).

[2] = test system: HIV-1 integrase; set-up: method as in earlier work; conditions: cited from earlier work
[3] = target: T2, HIV-1 RT-associated RDDP function (Human immunodeficiency virus type 1 group M subtype B, UniProt P04585); experiment: HIV-1 RNA-dependent DNA polymerase (RDDP) activity determination; type: biochemical; conditions: for remaining activity at 100 µM: read-out: Percentage of residual enzyme activity (RDDP); for IC50: wt RT
T2 construct: The 1:1 ration between the p66/p51 subunits was also verified; His6; made in house; host or cells: E. coli strain M15
Experimental: as §1
RNA-dependent DNA polymerase (RDDP) activity was measured as described[37] using the NNRTI Efavirenz as a control. In 25 µL volume containing 60 mM Tris-HCl buffer pH 8.1, 8 mM MgCl2, 60 mM KCl, 13 mM DTT, 2.5 µM poly (A)- oligo (dT), 100 µM dTTP, increasing concentrations of inhibitor, whose dilution were made in water, and 6 ng of wt RT according to a linear range of dose-response curve. After enzyme addition, the reaction mixture was incubated for 30 min at 37 °C and the stopped by addition of EDTA. Reaction products were detected by picogreen addition and measured with a multilabel counter plate reader Victor 3 (Perkin Elmer model 1420–051) equipped with filters for 502/523 nm (excitation/emission wavelength).

[4] = target: T3, HIV-1 RT V108F, RNase H function (Human immunodeficiency virus type 1 group M subtype B, UniProt P04585, V695F); experiment: RNase H inhibition on mutated RT V108F; type: biochemical
T3 construct: introduce amino acid substitutions into the p66 HIV-1 RT subunit coded in a p6HRT- prot plasmid; His6; made in house; host or cells: E. coli strain M15
Experimental: as §2
(§3) The QuikChange mutagenesis kit (Agilent Technologies Inc., Santa Clara, CA) was used to introduce amino acid substitutions into the p66 HIV-1 RT subunit coded in a p6HRT- prot plasmid by following the manufacturer’s instructions.
(§4) In order to verify this hypothesis, it was chosen to perform site-directed mutagenesis, determining the independent impact of several amino acid substitutions on the potency of the compound to inhibit the RNase H function. All the selected aminoacids are localised in the RNase H domain and are potentially crucial for the binding of RNase H function inhibitors. […]

[5] = target: T4, HIV-1 RT A508V, RNase H function (Human immunodeficiency virus type 1 group M subtype B, UniProt P04585, A1095V); experiment: RNase H inhibition on mutated RT A508V; type: biochemical
T4 construct: introduce amino acid substitutions into the p66 HIV-1 RT subunit coded in a p6HRT- prot plasmid; His6; made in house; host or cells: E. coli strain M15
Experimental: as §2, §3, §4

[6] = target: HIV-1 RT L503F, RNase H function (Human immunodeficiency virus 1, UniProt P04585, L1090F); experiment: RNase H inhibition on mutated RT L503F; type: biochemical; conditions: row printed L503F
Experimental: as §2, §3, §4

[7] = target: T5, HIV-1 RT A502F, RNase H function (Human immunodeficiency virus type 1 group M subtype B, UniProt P04585, A1089F); experiment: RNase H inhibition on mutated RT A502F; type: biochemical
T5 construct: introduce amino acid substitutions into the p66 HIV-1 RT subunit coded in a p6HRT- prot plasmid; His6; made in house; host or cells: E. coli strain M15
Experimental: (§5) HIV RT-associated RNase H activity was measured as described[36] using the RNase H inhibitor RDS1759[11] as a control. In 100 µL reaction volume containing 50 mM Tris-HCl buffer pH 7.8, 6 mM MgCl2, 1 mM dithiothreitol (DTT), 80 mM KCl, 0.25 µM hybrid RNA/DNA 5′-[sequence]-Fluorescin-3′ (HPLC, dry, QC: Mass Check) (available from Metabion) 5′-Dabcyl-[sequence]-3′ (HPLC, dry, QC: Mass Check), increasing concentrations of inhibitor, whose dilution were made in water, and 20 ng of wt RT according to a linear range of dose-response curve. The reaction mixture was incubated for 1 h at 37 °C, stopped by addition of EDTA and products were measured with a multilabel counter plate reader Victor 3 (Perkin Elmer model 1420–051) equipped with filters for 490/528 nm (excitation/emission wavelength).
(§6) The next mutation involved the residue A502 located in the alpha helix, close to the second identified allosteric binding pocket. […] A502 residue was replaced by a phenylalanine with the aim to provoke a shift of alpha helix that might reduce the space between the two subunits p51 and p66 and therefore hinder the entrance of the compound in the pocket.

[8] = test system: HIV-1 RT A502F, RNase H function; experiment: RNase H inhibition on mutated RT A502F; type: biochemical; conditions: RNase H IC50 ratio mutant/wt
Experimental: as §5, §6

[9] = test system: HIV-1 RT R448A, RNase H function; experiment: RNase H inhibition on mutated RT R448A; type: biochemical; conditions: RNase H IC50 ratio mutant/wt
Experimental: as §2, §3, §4

[10] = target: T6, HIV-1 RT R448A, RNase H function (Human immunodeficiency virus type 1 group M subtype B, UniProt P04585, R1035A); experiment: RNase H inhibition on mutated RT R448A; type: biochemical
T6 construct: introduce amino acid substitutions into the p66 HIV-1 RT subunit coded in a p6HRT- prot plasmid; His6; made in house; host or cells: E. coli strain M15
Experimental: as §2, §3, §4

[11] = target: T7, HIV-1 RT R557A, RNase H function (Human immunodeficiency virus type 1 group M subtype B, UniProt P04585, R1144A); experiment: RNase H inhibition on mutated RT R557A; type: biochemical
T7 construct: introduce amino acid substitutions into the p66 HIV-1 RT subunit coded in a p6HRT- prot plasmid; His6; made in house; host or cells: E. coli strain M15
Experimental: as §2, §3, §4

[12] = test system: HIV-1 RT R557A, RNase H function; experiment: RNase H inhibition on mutated RT R557A; type: biochemical; conditions: RNase H IC50 ratio mutant/wt
Experimental: as §2, §3, §4

[13] = in the presence of 100 µM of the compound

CC(=O)OCC1=C2C(COC3OC(CO)C(O)C(O)C3OC(C)=O)CC(C)C3(CC(c4ccoc4)OC3=O)C2CCC1 (stereo not shown) [Compound 5, teuflavoside]
remaining activity at 100 µM [1]: 74% | IC50 ([1]; wt RT): > 100 µM

COc1cc2oc(-c3ccc(O)c(O)c3)cc(=O)c2c(O)c1OC [Compound 3, cirsiliol]
concentration inhibiting HIV-1 integrase [2]: 12 µM | IC50 ([1]; wt RT): 8.2 ± 0.6 µM

CC1CCC2=C(C=O)CCCC2C12CC(c1ccoc1)OC2=O (stereo not shown) [Compound 9]
remaining activity at 100 µM [3, 13]: 80% | IC50 [3]: > 100 µM | folds less active on RNase H than flavuglaucin B (7) ([1]; wt RT): four | IC50 ([1]; wt RT): 36.4 ± 0.4 µM

COc1cc2oc(-c3ccc(O)cc3)cc(=O)c2c(O)c1OC [Compound 2, cirsimaritin]
decrease in RNase H inhibitory activity relative to cirsiliol (3) ([1]; wt RT): 10 folds | IC50 ([1]; wt RT): 89 ± 7 µM

CC(=O)OCC12C(O)CC(C)C3(CC(c4ccoc4)OC3=O)C1CCC(=O)C21CO1 (stereo not shown) [Compound 4, teuflavin]
remaining activity at 100 µM [1]: 80% | IC50 ([1]; wt RT): > 100 µM

CC(=O)OCC1=CCCC2C1=CCC(C)C21CC(c2ccoc2)OC1=O (stereo not shown) [Compound 6, Flavuglaucin A]
remaining activity at 100 µM [3, 13]: 80% | IC50 [3]: > 100 µM | folds less active on RNase H than flavuglaucin B (7) ([1]; wt RT): about two | IC50 ([1]; wt RT): 20.2 ± 2 µM

COc1ccc(-c2cc(=O)c3c(O)c(OC)c(OC)cc3o2)cc1 [Compound 1, salvigenin]
remaining activity at 100 µM [1]: 80% | IC50 ([1]; wt RT): > 100 µM

CC1=C2CCC(C)C3(CC(c4ccoc4)OC3=O)C2CCC1=O (stereo not shown) [Compound 8, Flavuglaucin C]
remaining activity at 100 µM [3, 13]: 80% | IC50 [3]: > 100 µM | folds less active on RNase H than flavuglaucin B (7) ([1]; wt RT): about six | IC50 ([1]; wt RT): 52.4 ± 0.4 µM

CC1CC=C2C(CO)=CCCC2C12CC(c1ccoc1)OC2=O (stereo not shown) [Compound 7, Flavuglaucin B]
change of RNase H IC50 against V108F compared with the wild type enzyme [4]: slight increase in IC50 | IC50 [5]: > 100 µM | IC50 [6]: 27.3 µM | IC50 [7]: 32.8 µM | loss in potency, A502F vs wild type [8]: 3.5 fold | loss in potency, R448A vs wild type [9]: 5.5 fold | IC50 [10]: 49.7 µM | IC50 [11]: 59.2 µM | loss in potency, R557A vs wild type [12]: 6.5 fold | Percentage of residual enzyme activity (RDDP) [3, 13]: 80% | IC50 [3]: > 100 µM | IC50 ([1]; wt RT): 9.1 ± 0.2 µM
